Our source for the IC50 values is BindingDB's records for doi:10.1021/cb900134c (Saic-Frederick, 2009).

Usually IC50 stands for the concentration at which inhibition is half-maximal. A higher IC50 goes with weaker potency.

The assay concerns the target T1, Broad substrate specificity ATP-binding cassette transporter ABCG2 (Homo sapiens, UniProt Q9UNQ0).
T1 sequence (Q9UNQ0 whole entry): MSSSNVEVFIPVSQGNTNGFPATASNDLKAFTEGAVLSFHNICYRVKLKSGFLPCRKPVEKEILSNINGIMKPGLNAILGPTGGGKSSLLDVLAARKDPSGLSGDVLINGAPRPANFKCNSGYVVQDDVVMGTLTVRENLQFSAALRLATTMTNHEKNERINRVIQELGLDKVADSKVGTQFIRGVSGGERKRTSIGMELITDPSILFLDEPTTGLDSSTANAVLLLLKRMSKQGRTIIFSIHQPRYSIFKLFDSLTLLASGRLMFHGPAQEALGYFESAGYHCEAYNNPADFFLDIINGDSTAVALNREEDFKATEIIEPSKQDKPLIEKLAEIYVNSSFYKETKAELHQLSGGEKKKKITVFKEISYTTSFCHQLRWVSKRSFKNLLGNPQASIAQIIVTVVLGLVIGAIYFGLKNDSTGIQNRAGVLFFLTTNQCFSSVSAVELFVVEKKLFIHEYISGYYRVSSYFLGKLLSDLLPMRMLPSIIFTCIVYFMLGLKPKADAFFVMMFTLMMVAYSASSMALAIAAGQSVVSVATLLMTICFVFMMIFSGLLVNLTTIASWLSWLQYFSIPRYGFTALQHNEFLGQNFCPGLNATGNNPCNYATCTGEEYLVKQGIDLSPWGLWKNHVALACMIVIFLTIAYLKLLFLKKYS
As to the kind of experiment: Screening Assay for ABCG2 Inhibitors. To be noted: pH 7.4; 37 °C. The protocol: IC50 and maximal activities for inhibition of PhA accumulation were determined from dose-response curves. The accumulation of PhA, a fluorescent ABCG2 substrate, formed the basis of the assay for inhibitors of ABCG2 activity. NCI-H460/MX20 cells were transferred to black-walled, clear-bottomed 384-well polylysine-coated assay plates (Corning) and allowed to attach for several hours. PhA was added, immediately followed by compounds or vehicle (DMSO/PBS) control and incubated for an additional 18 h. After removal of medium and washing with PBS containing Ca2+ and Mg2+, fluorescence intensity was read on a Tecan Safire fluorescence plate reader in bottom read mode (395 nm excitation, 670 nm emission). Each plate had control wells containing Fumitremorgin C (FTC). Data were normalized to FTC and reported as the percentage of FTC fluorescence. Apparent IC50 values were calculated from dose-response data using SigmaPlot (SPSS, Inc., Chicago) 4-parameter logistic nonlinear regression analysis.
For the compound `CO/C(=C/c1ccc(O)cc1)C(=O)N/C=C/c1cc(Br)c(OC)c(Br)c1` [Botryllamide B, 2], the IC50 is 11.2 µM.

Regarding `CO/C(=C/c1ccc(O)cc1)C(=O)N/C=C/c1ccc(OC)c(Br)c1` [Botryllamide D, 4], the IC50 stood at 16.4 µM.

`CO/C(=C/c1ccc(O)cc1)C(=O)N/C=C/c1ccc(OC)cc1` [Botryllamide I, 9] returned an IC50 of 41.4 µM.

With `COc1ccc2c3c([nH]c2c1)[C@H](C=C(C)C)N1C(=O)[C@@H]2CCCN2C(=O)[C@@H]1C3` [Fumitremorgin C], the IC50 came to 0.79 µM.

The compound `CO/C(=C\c1ccc(O)cc1)C(=O)N/C=C/c1cc(Br)c(OC)c(Br)c1` [US8470888, Botryllamide A] gave an IC50 of 33.4 µM.

The compound `CO/C(=C\c1ccc(O)cc1)C(=O)N/C=C/c1ccc(O)cc1` [US8470888, Botryllamide F] gave an IC50 of 16.7 µM.

The compound `CO/C(=C\c1ccc(O)cc1)C(=O)N/C=C/c1cc(Br)c(O)c(Br)c1` [US8470888, Botryllamide G] showed a concentration for half-maximal inhibition (IC50) of 6.9 µM.

As to `CO/C(=C\c1ccc(O)cc1)C(=O)N/C=C/c1ccc(OC)cc1` [US8470888, Botryllamide I], the IC50 was determined as 23.3 µM.
